# From patent US20210262029A1, “TREATMENT OF KCNQ2 AND KCNQ3 GAIN OF FUNCTION-ASSOCIATED DISORDERS” (The Trustees of Columbia University in the City of New York, priority 2018, published 2021)
# Legend:
# [1] = target: KCNQ3 R2S (Homo sapiens, UniProt O43525, R230S); conditions: 30 mM TEA; homomeric KCNQ3 R2S (R230S); CHO cells
# Description: (§1) Variants were introduced in KCNQ3 human cDNA cloned into pcDNA3.1 by QuikChange site-directed mutagenesis (Agilent Technologies, Milan, Italy), as previously described.^12 Channel subunits were expressed in Chinese hamster ovary (CHO) cells by transient transfection using Lipofectamine 2000 (Invitrogen, Carlsbad, Calif.) according to the manufacturer's protocol.^17 A plasmid encoding enhanced green fluorescent protein (Clontech Laboratories, Mountain View, Calif.) was used as a transfection marker; total cDNA in the transfection mixture was kept constant at 4 μg.
# (§2) Currents were recorded under whole-cell patch-clamp at room temperature (20-22° C.) 1 to 2 days after transfection as reported.^12 Current densities (expressed in pA/pF) were calculated as peak K^+ currents at 0 mV divided by cell capacitance. To generate conductance-voltage curves, the cells were held at −80 mV, then depolarized for 1.5 seconds from ˜120 to +20 mV in 10 mV increments, followed by an isopotential pulse at 0 mV of 300-millisecond duration. The current values recorded at the beginning of the 0 mV pulse were measured, normalized, and expressed as a function of the preceding voltages. The data were then fit to a Boltzmann distribution of the following form: y=max/[1+exp(V½−V)/k], where V is the test potential, V½ the half-activation potential, and k the slope factor.
# [2] = target: KCNQ3 (Homo sapiens, UniProt O43525); conditions: homomeric KCNQ3 wild type, CHO cells
# Description: as §1, §2
# [3] = target: KCNQ3 R2H (Homo sapiens, UniProt O43525, R230H); conditions: 30 mM TEA; homomeric KCNQ3 R2H (R230H); CHO cells
# Description: as §1, §2
# [4] = target: KCNQ3 R2C (Homo sapiens, UniProt O43525, R230C); conditions: 30 mM TEA; homomeric KCNQ3 R2C (R230C); CHO cells
# Description: as §1, §2
# [5] = target: KCNQ3 R1Q (Homo sapiens, UniProt O43525, R227Q); conditions: 30 mM TEA; homomeric KCNQ3 R1Q (R227Q); CHO cells
# Description: as §1, §2
# [6] = system: KCNQ2 + KCNQ3 + KCNQ3 R1Q; conditions: KCNQ2 + KCNQ3 + KCNQ3 R1Q 1:0.5:0.5, CHO cells
# Description: (§3) To mimic the genetic condition of patients, who carry a single mutant allele, and considering that IKM in adult neurons is mainly formed by tetrameric co-assembly of KCNQ2 and KCNQ3 subunits, we transfected CHO cells with KCNQ2 and KCNQ3 cDNAs in a 1:1 ratio (to mimic the genetic balance of normal individuals), and KCNQ2+KCNQ3+mutant KCNQ3 1:0.5:0.5 ratio (to mimic the genetic balance of affected individuals).
# as §1, §2
# [7] = system: KCNQ2 + KCNQ3 + KCNQ3 R2C; conditions: KCNQ2 + KCNQ3 + KCNQ3 R2C 1:0.5:0.5, CHO cells
# Description: as §3, §1, §2
# [8] = target: KCNQ2 + KCNQ3 (Homo sapiens, UniProt O43525+O43526); conditions: KCNQ2 + KCNQ3 1:1, CHO cells
# Description: as §3, §1, §2
# [9] = system: KCNQ2 + KCNQ3 + KCNQ3 R2S; conditions: KCNQ2 + KCNQ3 + KCNQ3 R2S 1:0.5:0.5, CHO cells
# Description: as §3, §1, §2
# [10] = system: KCNQ2 + KCNQ3 + KCNQ3 R2H; conditions: KCNQ2 + KCNQ3 + KCNQ3 R2H 1:0.5:0.5, CHO cells
# Description: as §3, §1, §2
# KCNQ2 + KCNQ3, sequence (O43526 1-844 isoform O43526-3): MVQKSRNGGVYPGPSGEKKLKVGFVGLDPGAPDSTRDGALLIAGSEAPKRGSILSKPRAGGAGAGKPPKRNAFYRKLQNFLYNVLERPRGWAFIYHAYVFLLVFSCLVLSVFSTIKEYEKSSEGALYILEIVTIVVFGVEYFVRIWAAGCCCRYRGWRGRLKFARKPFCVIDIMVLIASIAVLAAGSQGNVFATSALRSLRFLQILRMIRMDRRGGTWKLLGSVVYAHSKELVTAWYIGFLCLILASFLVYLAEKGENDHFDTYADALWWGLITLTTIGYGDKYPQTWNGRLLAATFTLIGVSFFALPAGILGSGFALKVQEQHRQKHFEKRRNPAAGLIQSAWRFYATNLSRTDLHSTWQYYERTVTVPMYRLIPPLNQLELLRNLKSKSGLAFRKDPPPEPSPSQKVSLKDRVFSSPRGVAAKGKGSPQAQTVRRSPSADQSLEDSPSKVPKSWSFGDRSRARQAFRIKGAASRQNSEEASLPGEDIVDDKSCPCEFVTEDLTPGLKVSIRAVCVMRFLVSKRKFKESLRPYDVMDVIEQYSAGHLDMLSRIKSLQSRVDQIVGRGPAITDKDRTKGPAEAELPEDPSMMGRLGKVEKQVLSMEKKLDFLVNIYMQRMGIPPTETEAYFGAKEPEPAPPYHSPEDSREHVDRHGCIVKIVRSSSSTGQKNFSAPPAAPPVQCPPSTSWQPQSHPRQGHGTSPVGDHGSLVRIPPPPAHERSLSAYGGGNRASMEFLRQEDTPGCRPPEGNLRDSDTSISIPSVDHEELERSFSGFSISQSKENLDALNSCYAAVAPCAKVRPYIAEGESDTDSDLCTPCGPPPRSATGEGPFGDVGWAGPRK
# KCNQ2 + KCNQ3, sequence (O43525 whole entry): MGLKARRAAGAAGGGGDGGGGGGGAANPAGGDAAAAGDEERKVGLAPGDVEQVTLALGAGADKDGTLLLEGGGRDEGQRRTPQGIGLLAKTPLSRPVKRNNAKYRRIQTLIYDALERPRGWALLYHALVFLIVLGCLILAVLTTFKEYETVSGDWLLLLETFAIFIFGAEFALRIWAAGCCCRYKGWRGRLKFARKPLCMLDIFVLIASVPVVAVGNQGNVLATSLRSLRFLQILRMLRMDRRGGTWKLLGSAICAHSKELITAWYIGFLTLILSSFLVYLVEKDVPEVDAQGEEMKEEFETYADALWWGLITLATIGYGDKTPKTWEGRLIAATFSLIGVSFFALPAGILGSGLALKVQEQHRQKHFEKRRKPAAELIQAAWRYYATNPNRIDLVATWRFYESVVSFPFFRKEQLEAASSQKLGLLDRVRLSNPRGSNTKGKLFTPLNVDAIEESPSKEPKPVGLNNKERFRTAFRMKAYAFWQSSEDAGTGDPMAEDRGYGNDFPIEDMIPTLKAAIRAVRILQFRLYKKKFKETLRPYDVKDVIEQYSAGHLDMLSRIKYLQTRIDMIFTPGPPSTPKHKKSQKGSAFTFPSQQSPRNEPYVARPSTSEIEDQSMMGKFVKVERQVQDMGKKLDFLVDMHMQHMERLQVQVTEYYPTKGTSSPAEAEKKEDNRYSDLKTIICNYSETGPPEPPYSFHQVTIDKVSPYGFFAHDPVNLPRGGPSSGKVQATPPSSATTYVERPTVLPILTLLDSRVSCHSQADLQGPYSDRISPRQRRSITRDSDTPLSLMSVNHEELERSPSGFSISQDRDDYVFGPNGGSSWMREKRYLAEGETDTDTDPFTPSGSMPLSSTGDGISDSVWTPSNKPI
# KCNQ3, sequence (O43525 whole entry): as above
# KCNQ3 R2S, sequence (O43525 whole entry R230S): as the sequence (O43525 whole entry) above, with R230S counted along it
# KCNQ3 R1Q, sequence (O43525 whole entry R227Q): as the sequence (O43525 whole entry) above, with R227Q counted along it
# KCNQ3 R2C, sequence (O43525 whole entry R230C): as the sequence (O43525 whole entry) above, with R230C counted along it
# KCNQ3 R2H, sequence (O43525 whole entry R230H): as the sequence (O43525 whole entry) above, with R230H counted along it
smiles,measurement,setting,value
"CC[N+](CC)(CC)CC [TEA, tetraethylammonium]","Blockade by TEA, % 30 mM",[1],66.1 ± 6.1%
same,"Blockade by TEA, % 0.3 mM",[2]; 0.3 mM TEA,6.4 ± 1.8%
same,"Blockade by TEA, % 3 mM",[2]; 3 mM TEA,13.0 ± 3.4%
same,"Blockade by TEA, % 30 mM",[2]; 30 mM TEA,61.7 ± 5.7%
same,"Blockade by TEA, % 30 mM",[3],70.9 ± 7.3%
same,"Blockade by TEA, % 30 mM",[4],58.6 ± 13%
same,"Blockade by TEA, % 30 mM",[5],61.1 ± 6.8%
same,"Blockade by TEA, % 0.3 mM",[6]; 0.3 mM TEA,19.3 ± 2.0%
same,"Blockade by TEA, % 3 mM",[6]; 3 mM TEA,44.1 ± 4.3%
same,"Blockade by TEA, % 30 mM",[6]; 30 mM TEA,85.3 ± 2.1%
same,"Blockade by TEA, % 0.3 mM",[7]; 0.3 mM TEA,14.0 ± 6.2%
same,"Blockade by TEA, % 3 mM",[7]; 3 mM TEA,47.1 ± 9.9%
same,"Blockade by TEA, % 30 mM",[7]; 30 mM TEA,77.0 ± 7.3%
same,"Blockade by TEA, % 0.3 mM",[8]; 0.3 mM TEA,15.6 ± 3.1%
same,"Blockade by TEA, % 3 mM",[8]; 3 mM TEA,50.5 ± 3.1%
same,"Blockade by TEA, % 30 mM",[8]; 30 mM TEA,78.8 ± 5.6%
same,"Blockade by TEA, % 0.3 mM",[9]; 0.3 mM TEA,12.9 ± 2.3%
same,"Blockade by TEA, % 3 mM",[9]; 3 mM TEA,43.6 ± 8.2%
same,"Blockade by TEA, % 30 mM",[9]; 30 mM TEA,80.1 ± 6.5%
same,"Blockade by TEA, % 0.3 mM",[10]; 0.3 mM TEA,20.8 ± 3.1%
same,"Blockade by TEA, % 3 mM",[10]; 3 mM TEA,47.4 ± 2.5%
same,"Blockade by TEA, % 30 mM",[10]; 30 mM TEA,78.8 ± 3.2%
